Data on one molecule can be found in ChEMBL document CHEMBL5506003, “Design and biological evaluation of dual tubulin/HDAC inhibitors based on millepachine for treatment of prostate cancer” (Eur J Med Chem, 2024).

Calls of active or inactive are those of the source. The rule behind the calls is not given here.

Data set [1] addresses Histone deacetylase 2 (Homo sapiens, UniProt Q92769). Description: Inhibition of HDAC2 in human HeLa nuclear extracts incubated for 30 mins by fluorescence based assay. It is filed as cell-based.
The target in data set [2] is T1, Protein deacetylase HDAC6 (Homo sapiens, UniProt Q9UBN7).
T1 sequence (Q9UBN7 whole entry): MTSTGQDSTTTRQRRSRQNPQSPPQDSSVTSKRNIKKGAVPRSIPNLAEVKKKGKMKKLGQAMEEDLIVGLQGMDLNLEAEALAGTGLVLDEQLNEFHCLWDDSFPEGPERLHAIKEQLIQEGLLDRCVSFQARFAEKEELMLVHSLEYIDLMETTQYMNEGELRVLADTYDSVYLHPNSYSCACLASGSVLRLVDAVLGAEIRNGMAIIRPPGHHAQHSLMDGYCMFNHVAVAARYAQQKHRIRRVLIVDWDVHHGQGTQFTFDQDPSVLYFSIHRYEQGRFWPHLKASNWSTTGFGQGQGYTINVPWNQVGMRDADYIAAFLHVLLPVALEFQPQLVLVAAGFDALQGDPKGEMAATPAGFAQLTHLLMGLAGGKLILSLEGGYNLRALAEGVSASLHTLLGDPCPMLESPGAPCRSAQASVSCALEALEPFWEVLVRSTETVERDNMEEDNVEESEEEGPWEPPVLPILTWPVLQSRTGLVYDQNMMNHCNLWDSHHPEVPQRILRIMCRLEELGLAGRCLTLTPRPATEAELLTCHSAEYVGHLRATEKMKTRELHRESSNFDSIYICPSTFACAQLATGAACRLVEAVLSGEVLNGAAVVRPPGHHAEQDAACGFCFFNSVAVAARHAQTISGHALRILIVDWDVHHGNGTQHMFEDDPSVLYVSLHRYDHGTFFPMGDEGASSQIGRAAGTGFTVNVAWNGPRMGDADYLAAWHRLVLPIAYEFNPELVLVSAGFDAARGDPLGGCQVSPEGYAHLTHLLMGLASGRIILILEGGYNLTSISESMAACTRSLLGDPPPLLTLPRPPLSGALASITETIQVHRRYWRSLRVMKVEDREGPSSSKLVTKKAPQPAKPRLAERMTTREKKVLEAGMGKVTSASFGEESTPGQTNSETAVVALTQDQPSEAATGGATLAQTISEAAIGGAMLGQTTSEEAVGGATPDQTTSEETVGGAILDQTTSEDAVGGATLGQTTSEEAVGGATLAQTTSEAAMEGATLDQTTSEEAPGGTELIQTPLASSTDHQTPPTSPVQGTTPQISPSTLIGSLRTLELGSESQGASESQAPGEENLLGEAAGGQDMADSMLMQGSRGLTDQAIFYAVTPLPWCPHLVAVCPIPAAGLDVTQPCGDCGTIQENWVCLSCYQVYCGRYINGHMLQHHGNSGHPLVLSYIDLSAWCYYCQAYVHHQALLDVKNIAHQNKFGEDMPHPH
As to the kind of experiment: Inhibition of HDAC6 in human HeLa nuclear extracts incubated for 30 mins by fluorescence based assay. It is filed as cell-free.

Data set [3] addresses T2, Protein deacetylase HDAC6 (Homo sapiens) (UniProt Q9UBN7).
T2 sequence (whole entry): T1 sequence (Q9UBN7 whole entry)
Description: Inhibition of HDAC6 in human PC-3 cells assessed as increase in acetylated alpha-tubulin level incubated for 24 hrs by Western blotting assay. It is filed as cell-based. The settings on record: dose 0.08-0.32 µM. For orientation: A western blot detects proteins with antibodies after separation by electrophoresis.

For data set [4], the target named is Histone deacetylase 1 (Homo sapiens, UniProt Q13547). As to the kind of experiment: Inhibition of HDAC1 in human PC-3 cells assessed as increase in acetylated Histone-H3 level incubated for 24 hrs by Western blotting assay. It is filed as cell-based. Conditions: dose 0.08-0.32 µM.
Sequence of Histone deacetylase 1 (Q13547 whole entry): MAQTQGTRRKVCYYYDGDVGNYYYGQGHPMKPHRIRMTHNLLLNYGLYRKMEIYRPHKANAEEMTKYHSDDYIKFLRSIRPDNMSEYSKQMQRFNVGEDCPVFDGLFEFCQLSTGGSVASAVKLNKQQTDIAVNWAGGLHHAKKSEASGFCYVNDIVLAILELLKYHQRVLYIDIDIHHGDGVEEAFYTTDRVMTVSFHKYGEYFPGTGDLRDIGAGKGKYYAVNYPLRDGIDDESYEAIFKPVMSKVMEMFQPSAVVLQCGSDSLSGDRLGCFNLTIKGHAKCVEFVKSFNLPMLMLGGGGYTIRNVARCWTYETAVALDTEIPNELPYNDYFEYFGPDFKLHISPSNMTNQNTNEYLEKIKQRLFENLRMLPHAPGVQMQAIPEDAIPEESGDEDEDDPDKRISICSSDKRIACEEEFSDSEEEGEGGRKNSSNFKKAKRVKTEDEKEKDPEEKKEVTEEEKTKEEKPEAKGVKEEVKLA
Data set [5] has as its target Histone deacetylase 3 (Homo sapiens) (UniProt O15379). Description: Inhibition of HDAC3 in human PC-3 cells assessed as increase in acetylated Histone-H3 level incubated for 24 hrs by Western blotting assay. Conditions: dose 0.08-0.32 µM. It is filed as cell-based.
The test system of data set [6] is PC-3. As to the kind of experiment: Induction of cell cycle arrest in human PC-3 cells assessed as G2/M phase cells at 0.08 uM incubated for 24 hrs by PI staining based flow cytometry analysis (reference value: 12.83%). It is filed as functional.
The test system of data set [7] is PC-3. As to the kind of experiment: Induction of cell cycle arrest in human PC-3 cells assessed as decrease in phosphorylated Cdc2 at […] by Western blotting analysis. The settings on record: dose 0.08-0.32 µM. It is filed as functional, cell-based.
Data set [8] concerns PC-3. Description: Induction of cell cycle arrest in human PC-3 cells assessed as increase in cyclin B1 level at 0.08 to 0.32 uM by Western blotting analysis. It is filed as functional, cell-based. The settings on record: dose 0.08-0.32 µM.
The test system of data set [9] is PC-3. As to the kind of experiment: Induction of apoptosis in human PC-3 cells assessed as viable cells at 0.32 uM incubated for 24 hrs by Annexin V-FITC and PI staining based flow cytometry (reference value: 97.5%). It is filed as functional. Conditions: read-out: Activity. Background: In flow cytometry, cells or beads pass a laser one at a time.
The subject of data set [10] is PC-3. As to the kind of experiment: Induction of apoptosis in human PC-3 cells assessed as upregulation of cleaved caspase-3 expression at 0.08 to 0.32 uM by Western blotting analysis. It is filed as functional, cell-based. The settings on record: dose 0.08-0.32 µM.
Data set [11] relates to PC-3. As to the kind of experiment: Induction of mitochondrial membrane potential loss in human PC-3 cells assessed as decrease in JC-1 aggregate level by measuring red fluorescence intensity at 0.08 uM incubated for 24 hrs by JC-1 staining based flow cytometry analysis (reference value: 93.5%). It is filed as functional. Set-up: scale not given: the % may be the effect or the level left.

Data set [12] concerns PC-3. Description: Induction of mitochondrial membrane potential loss in human PC-3 cells assessed as decrease in JC-1 aggregate level by measuring red fluorescence intensity at 0.16 uM incubated for 24 hrs by JC-1 staining based flow cytometry analysis (reference value: 93.5%). It is filed as functional. Set-up: scale not given: the % may be the effect or the level left.

Data set [13] has as its system PC-3. As to the kind of experiment: Induction of mitochondrial membrane potential loss in human PC-3 cells incubated for 24 hrs by JC-1 staining based flow cytometry analysis. It is filed as functional, cell-based. Conditions: dose 0.08-0.32 µM.
For data set [14], the system named is PC-3. As to the kind of experiment: Induction of ROS generation in human PC-3 cells at 0.08 uM incubated for 24 hrs by DCFH-DA staining based flow cytometry analysis (reference value: 2.63%). It is filed as functional.
In data set [15] the test system is A549. As to the kind of experiment: Inhibition of cell migration in human A549 cells at 0.4 to 1.6 uM incubated for 24 hrs by crystal violet staining based transwell method. It is filed as functional. The settings on record: dose 0.4-1.6 µM.
Data set [16] deals with HUVEC. As to the kind of experiment: Anti-angiogenesis activity against HUVECs assessed as reduction in capillary like tubules at 0.1 to 1.6 uM incubated for 6 hrs by matrigel based microscopic analysis. It is filed as functional, cell-based. The settings on record: Homo sapiens, dose 0.1-1.6 µM.
The test system of data set [17] is PC-3. As to the kind of experiment: Antitumor activity against human PC-3 cells xenografted in iv dosed BALB/c nude mouse assessed as tumor growth inhibition administered every 2 days and measured after 3 weeks. It is filed as functional, organism-based. Conditions: dose 10-20 mg/kg. (Xenograft models place foreign cells or tissue in a host animal.)
Data set [18] can be described thus: Toxicity in BALB/c nude mouse xenografted with human PC-3 cells assessed as heart damage at 10 to 20 mg/kg, iv administered every 2 days and measured after 3 weeks. It is filed as organism-based. The settings on record: in vivo, 504 h, dose 10-20 mg/kg.
Data set [19] can be described thus: Toxicity in BALB/c nude mouse xenografted with human PC-3 cells assessed as liver damage at 10 to 20 mg/kg, iv administered every 2 days and measured after 3 weeks. It is filed as organism-based. The settings on record: in vivo, 504 h, dose 10-20 mg/kg.
The nature of data set [20]: Toxicity in BALB/c nude mouse xenografted with human PC-3 cells assessed as spleen damage at 10 to 20 mg/kg, iv administered every 2 days and measured after 3 weeks. It is filed as organism-based. Conditions: in vivo, 504 h, dose 10-20 mg/kg.
The nature of data set [21]: Toxicity in BALB/c nude mouse xenografted with human PC-3 cells assessed as kidney damage at 10 to 20 mg/kg, iv administered every 2 days and measured after 3 weeks. It is filed as organism-based. The settings on record: in vivo, 504 h, dose 10-20 mg/kg.
A short description of data set [22]: MRT(0 to t) in Sprague-Dawley rat at 2 mg/kg, iv measured upto 24 hrs by HPLC-MS analysis. It is filed as ADME, organism-based. The settings on record: in vivo.

Sequence of Histone deacetylase 2 (Q92769 whole entry): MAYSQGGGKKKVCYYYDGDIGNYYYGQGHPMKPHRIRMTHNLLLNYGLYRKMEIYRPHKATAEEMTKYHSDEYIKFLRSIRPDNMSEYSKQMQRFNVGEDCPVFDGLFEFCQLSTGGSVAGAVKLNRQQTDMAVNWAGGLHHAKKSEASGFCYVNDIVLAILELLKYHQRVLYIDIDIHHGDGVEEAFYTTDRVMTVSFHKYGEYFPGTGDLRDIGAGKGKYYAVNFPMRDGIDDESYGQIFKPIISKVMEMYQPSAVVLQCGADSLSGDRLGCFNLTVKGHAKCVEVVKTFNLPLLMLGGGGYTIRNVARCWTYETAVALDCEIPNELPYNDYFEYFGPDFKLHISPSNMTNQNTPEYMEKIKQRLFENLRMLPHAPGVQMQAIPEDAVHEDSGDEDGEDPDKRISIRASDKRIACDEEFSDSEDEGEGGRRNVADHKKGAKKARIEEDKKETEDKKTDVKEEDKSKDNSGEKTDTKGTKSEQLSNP
Sequence of Histone deacetylase 3 (Homo sapiens) (O15379 whole entry): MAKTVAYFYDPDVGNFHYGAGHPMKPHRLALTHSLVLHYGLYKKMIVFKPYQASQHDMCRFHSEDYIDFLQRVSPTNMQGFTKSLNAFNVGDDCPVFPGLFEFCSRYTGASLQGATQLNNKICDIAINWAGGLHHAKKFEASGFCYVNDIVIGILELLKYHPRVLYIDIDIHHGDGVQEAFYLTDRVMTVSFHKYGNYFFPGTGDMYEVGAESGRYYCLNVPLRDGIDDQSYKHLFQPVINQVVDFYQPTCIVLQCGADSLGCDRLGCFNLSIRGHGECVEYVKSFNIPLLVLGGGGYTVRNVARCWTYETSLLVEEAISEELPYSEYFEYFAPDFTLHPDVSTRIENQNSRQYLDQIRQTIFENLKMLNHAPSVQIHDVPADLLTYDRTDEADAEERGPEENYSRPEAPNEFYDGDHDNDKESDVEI

With `COc1ccc(/C=C/C(=O)c2ccc(OC)c3c2OC(C)(C)C=C3)cc1NCC(=O)NO`, the IC50 in data set [1] worked out at 430 nM; in [2], 620 nM. Further, the inhibition result in data set [3], in [4] and in [5] was “Dose-Dependent Effect” each time. The Activity was 25.45% in [6]; 88.4% in data set [11]; 77.9% in [12]; “Dose-Dependent Effect” in [13]; 45.7% in data set [14]; “Dose-Dependent Effect” in data set [17]. Besides, the Activity result in [18], in data set [19], in [20] and in data set [21] was “Non-Toxic” each time. Besides, the outcome in data set [7], in data set [8], in data set [10] and in data set [16] was Active. Besides, the viability at 0.32 µM in [9] came to 27.6%. Further, the inhibition entry in [15] was “Active”. The mean residence time MRT last at 24 h in data set [22] was 1.32 h.

The term IC50 denotes the concentration that gives 50% inhibition. In general, MRT last refers to a mean duration of stay, worked out from the concentration-time curve.
